Test results from PMC3029496 (Biochemistry, 2010).

Molecular target: PncA H57D mutant (Mycobacterium tuberculosis, UniProt I6XD65, H57D)
Assay type: biochemical

## NC(=O)c1cnccn1 [pyrazinamide]
  decrease in Km, H57D mutant versus wild type: 20 fold
  decrease in kcat (catalytic turnover), H57D mutant versus wild type: 38 fold
  kcat: 0.10 ± 0.01 s⁻¹
